Data as given in patent publication US20230382925A1, “MODULATORS OF CYSTIC FIBROSIS TRANSMEMBRANE CONDUCTANCE REGULATOR” (VERTEX PHARMACEUTICALS INCORPORATED, priority 2020, published 2023).
Where two headings read alike, the source gives them in different places.

Biological target: CFTR (Homo sapiens, UniProt P13569)
Assay: Membrane Potential Dye, Enteroid Assay B
Format: cell-based
Summary of the method: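 Human intestinal enteroid cells exposed to compound 18-24 h at 37 °C, then loaded with methyl oxonol membrane-potential dye plus CaCC blockers. Chloride transport triggered in chloride-free buffer with 10 μM forskolin, 100 μM IBMX, 300 nM Compound III; fluorescence read 15 min, expressed as % of triple-corrector/potentiator combination control.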

[1] = Table 10, read-out: Ent. B EC50

CFTR, sequence (P13569 with tags, fused parts or gaps DEL508-508): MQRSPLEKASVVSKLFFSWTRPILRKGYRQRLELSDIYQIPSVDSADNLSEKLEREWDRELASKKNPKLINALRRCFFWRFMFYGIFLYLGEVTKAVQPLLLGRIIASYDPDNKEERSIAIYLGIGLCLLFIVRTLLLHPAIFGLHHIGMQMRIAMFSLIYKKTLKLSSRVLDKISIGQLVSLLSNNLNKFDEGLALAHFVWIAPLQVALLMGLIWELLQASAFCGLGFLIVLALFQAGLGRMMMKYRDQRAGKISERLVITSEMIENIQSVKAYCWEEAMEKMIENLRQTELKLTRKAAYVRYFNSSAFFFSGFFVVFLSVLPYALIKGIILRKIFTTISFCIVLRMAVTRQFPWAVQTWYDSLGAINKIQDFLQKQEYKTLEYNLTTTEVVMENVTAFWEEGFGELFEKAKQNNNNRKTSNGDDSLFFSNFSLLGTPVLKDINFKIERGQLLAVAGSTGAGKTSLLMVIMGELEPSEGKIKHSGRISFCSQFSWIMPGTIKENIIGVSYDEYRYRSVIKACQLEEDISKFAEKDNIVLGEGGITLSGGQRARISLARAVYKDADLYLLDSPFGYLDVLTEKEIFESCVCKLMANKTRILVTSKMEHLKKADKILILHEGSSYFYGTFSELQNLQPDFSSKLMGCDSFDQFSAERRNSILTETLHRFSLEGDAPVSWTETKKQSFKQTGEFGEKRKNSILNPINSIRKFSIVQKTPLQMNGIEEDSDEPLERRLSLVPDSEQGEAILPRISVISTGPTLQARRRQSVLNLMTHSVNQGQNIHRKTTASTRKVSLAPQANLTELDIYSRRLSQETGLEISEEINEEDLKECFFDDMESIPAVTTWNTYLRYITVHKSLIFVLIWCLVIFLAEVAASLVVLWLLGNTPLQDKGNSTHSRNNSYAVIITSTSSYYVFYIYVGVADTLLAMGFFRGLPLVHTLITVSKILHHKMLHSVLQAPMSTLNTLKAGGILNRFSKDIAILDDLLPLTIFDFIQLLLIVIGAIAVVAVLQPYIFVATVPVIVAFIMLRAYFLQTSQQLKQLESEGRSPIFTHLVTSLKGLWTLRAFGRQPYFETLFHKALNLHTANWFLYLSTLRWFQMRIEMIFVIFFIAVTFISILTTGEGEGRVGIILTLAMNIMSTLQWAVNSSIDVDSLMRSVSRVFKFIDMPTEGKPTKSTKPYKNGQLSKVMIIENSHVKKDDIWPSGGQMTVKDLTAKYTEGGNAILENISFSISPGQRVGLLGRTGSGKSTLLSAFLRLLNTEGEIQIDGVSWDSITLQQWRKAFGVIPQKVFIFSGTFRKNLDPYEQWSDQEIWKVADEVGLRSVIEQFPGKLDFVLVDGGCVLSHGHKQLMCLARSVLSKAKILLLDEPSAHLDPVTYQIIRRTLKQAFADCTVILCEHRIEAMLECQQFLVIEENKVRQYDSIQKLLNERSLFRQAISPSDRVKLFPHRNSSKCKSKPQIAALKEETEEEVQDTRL

| Compound | Ent. B Max Activity (%) (Table 9) | EC50 (Table 9, read-out: Ent. B EC50) | Ent. B Max Activity (%) (Table 10) | EC50 [1] | other results |
| --- | --- | --- | --- | --- | --- |
| Cc1cccc(C)c1-c1cc2nc(n1)NS(=O)(=O)c1cccc(c1)C(=O)N(C1CC(C)(OC(F)(F)F)C1)[C@H](CC(C)(C)C)CO2 (single isomer, unassigned) [Compound 157] |  |  | ++ (++ is 30-60%) | < 1000 nM |  |
| Cc1cccc(C)c1-c1cc2nc(n1)NS(=O)(=O)c1cccc(c1)C(=O)N(C1CC3(CCN(C(=O)C(C)C)CC3)C1)[C@H](CC(C)(C)C(F)(F)F)CO2 [Compound 416] |  |  | +++ (+++ is >60%) | < 1000 nM |  |
| COC(=O)NC1(C)CC(N2C(=O)c3cccc(c3)S(=O)(=O)Nc3nc(cc(-c4c(C)cccc4C)n3)OC[C@H]2CC(C)(C)C)C1 (single isomer, unassigned) [Compound 171] |  |  | +++ (+++ is >60%) | < 1000 nM |  |
| CCN(C(=O)OC)C1CC2(C1)CC(N1C(=O)c3cccc(c3)S(=O)(=O)Nc3nc(cc(-c4c(C)cccc4C)n3)OC[C@H]1CC(C)(C)C)C2 (stereo in doubt) [Compound 236] |  |  | ++ (++ is 30-60%) | < 1000 nM |  |
| COC(=O)NC1CC2(C1)CC(N1C(=O)c3cccc(c3)S(=O)(=O)Nc3nc(cc(-c4c(C)cccc4C)n3)O[C@@H](C)[C@H]1C)C2 (some centres unmarked) [Compound 443] |  |  | ++ (++ is 30-60%) | < 1000 nM |  |
| Cc1cccc(C)c1-c1cc2nc(n1)NS(=O)(=O)c1cccc(c1)C(=O)N(C1CC(CO)(CO)C1)[C@H](CC(C)(C)C)CO2 [Compound 158, (11R)-12-[3,3-Bis(hydroxymethyl)cyclobutyl]-6-(2,6-dimethylphenyl)-11-(2,2-dimethylpropyl)-9-oxa-2λ^6-thia-3,5,12,19-tetraazatricyclo[12.3.1.14,8]nonadeca-1(17),4(19),5,7,14(18),15-hexaene-2,2,13-trione] |  |  | +++ (+++ is >60%) | 1000 to 3000 nM |  |
| Cc1cccc(C)c1-c1cc2nc(n1)NS(=O)(=O)c1cccc(c1)C(=O)N(C1CC3(CC(N)C3)C1)[C@H](CC(C)(C)C)CO2 (single isomer, unassigned) [Compound 118] |  |  |  |  | Ent. B Max Activity (%): +++ (+++ is >60%); EC50 (read-out: Ent. B EC50): < 1000 nM |
| COC(=O)NC1CC2(C1)CC(N1C(=O)c3cccc(c3)S(=O)(=O)Nc3nc(cc(-c4c(C)cccc4C)n3)OC[C@H]1CC(C)(C)C)C2 (single isomer, unassigned) [Compound 91] | +++ (+++ is >60%) | < 1000 nM |  |  |  |
| COC(=O)N1CCC2(CC1)CC(N1C(=O)c3cccc(c3)S(=O)(=O)Nc3nc(cc(-c4c(C)cccc4C)n3)OC[C@H]1CC(C)(C)C)C2 [Compound 262] | +++ (+++ is >60%) | < 1000 nM |  |  |  |
| Cc1cccc(C)c1-c1cc2nc(n1)NS(=O)(=O)c1cccc(c1)C(=O)N(C1CC3(CCN(CCOC(C)C)CC3)C1)[C@H](CC1(C(F)(F)F)CC1)CO2 [Compound 129, (11R)-6-(2,6-dimethylphenyl)-12-[7-(2-isopropoxyethyl)-7-azaspiro[3.5]nonan-2-yl]-2,2-dioxo-11-[[1-(trifluoromethyl)cyclopropyl]methyl]-9-oxa-2λ^6-thia-3,5,12,19-tetrazatricyclo[12.3.1.14,8]nonadeca-1(18),4(19),5,7,14,16-hexaen-13-one] |  |  |  |  | Ent. B Max Activity (%): +++ (+++ is >60%); EC50 (read-out: Ent. B EC50): < 1000 nM |
| Cc1cccc(C)c1-c1cc2nc(n1)NS(=O)(=O)c1cccc(n1)C(=O)N(C1CC3(CCN(C)CC3)C1)[C@H](CC(C)C)CO2 [Compound 390] |  |  |  |  | Ent. B Max Activity (%): +++ (+++ is >60%); EC50 (read-out: Ent. B EC50): < 1000 nM |
| Cc1cccc(C)c1-c1cc2nc(n1)NS(=O)(=O)c1cccc(c1)C(=O)N(C1CC3(CCN(C(=O)OC(C)C)CC3)C1)C[C@@H](C)O2 [Compound 181, Isopropyl 2-[(10R)-6-(2,6-dimethylphenyl)-10-methyl-2,2,13-trioxo-9-oxa-2λ^6-thia-3,5,12,19-tetrazatricyclo[12.3.1.14,8]nonadeca-1(18),4(19),5,7,14,16-hexaen-12-yl]-7-azaspiro[3.5]nonane-7-carboxylate] |  |  |  |  | Ent. B Max Activity (%): +++ (+++ is >60%); EC50 (read-out: Ent. B EC50): < 1000 nM |
| CC(=O)N1CC2(CC(N3C(=O)c4cccc(c4)S(=O)(=O)Nc4nc(cc(-c5c(C)cccc5C)n4)OC[C@H]3CC3(C(F)(F)F)CC3)C2)C1 [Compound 452] | +++ (+++ is >60%) | < 1000 nM |  |  |  |

Second part, led by results:

| Ent. B Max Activity (%) (Table 9) | EC50 (Table 9, read-out: Ent. B EC50) | Ent. B Max Activity (%) (Table 10) | EC50 [1] | Compound | other results |
| --- | --- | --- | --- | --- | --- |
| +++ (+++ is >60%) | < 1000 nM |  |  | Cc1cccc(C)c1-c1cc2nc(n1)NS(=O)(=O)c1cccc(c1)C(=O)N([C@H]1C[C@@H](N3C[C@@H](C)O[C@@H](C)C3)C1)[C@H](CC(C)C)CO2 [Compound 380] |  |
|  |  | +++ (+++ is >60%) | < 1000 nM | Cc1cccc(C)c1-c1cc2nc(n1)NS(=O)(=O)c1cccc(c1)C(=O)N(C1CS(=O)(=O)C1)[C@H](CC(C)(C)C)CO2 [Compound 222] |  |
| +++ (+++ is >60%) | < 1000 nM |  |  | Cc1cccc(C)c1-c1cc2nc(n1)NS(=O)(=O)c1cccc(c1)C(=O)N(C1CC(N(C)CCC(C)(C)C)C1)[C@H](CC(C)C)CO2 (stereo partly drawn) [Compound 69, (11R)-12-[3-[3,3-dimethylbutyl(methyl)amino]cyclobutyl]-6-(2,6-dimethylphenyl)-11-isobutyl-2,2-dioxo-9-oxa-2λ^6-thia-3,5,12,19-tetrazatricyclo[12.3.1.14,8]nonadeca-1(18),4(19),5,7,14,16-hexaen-13-one] |  |
| +++ (+++ is >60%) | < 1000 nM |  |  | Cc1cccc(C)c1-c1cc2nc(n1)NS(=O)(=O)c1cccc(c1)C(=O)N([C@H]1C[C@@H](OC(C)C)C1)[C@H](CC(C)C)CO2 (single isomer, unassigned) [Compound 46] |  |
|  |  | ++ (++ is 30-60%) | < 1000 nM | CCC(=O)N(C)C1CC(N2C(=O)c3cccc(c3)S(=O)(=O)Nc3nc(cc(-c4c(C)cccc4C)n3)OC[C@H]2CC(C)(C)C)C1 (single isomer, unassigned) [Compound 240] |  |
| +++ (+++ is >60%) | < 1000 nM |  |  | Cc1cccc(C)c1-c1cc2nc(n1)NS(=O)(=O)c1cccc(c1)C(=O)N(C1CC(NC3CCC(C)(C)CC3)C1)[C@H](CC(C)C)CO2 (stereo partly drawn) [Compound 70, (11R)-12-[3-[(4,4-Dimethylcyclohexyl)amino]cyclobutyl]-6-(2,6-dimethylphenyl)-11-isobutyl-2,2-dioxo-9-oxa-2λ^6-thia-3,5,12,19-tetrazatricyclo[12.3.1.14,8]nonadeca-1(18),4(19),5,7,14,16-hexaen-13-one] |  |
